Experimental data published in ChEMBL document CHEMBL1130968, “Synthesis and biological evaluation of 2,2-disubstituted 2-aminoethanols: analogues of FTY720” (1998).

What was measured:
Rattus norvegicus [1] = assay: In vivo immunosuppressive effect of compound was determined on host versus graft reaction (HvGR) using popliteal lymph node gain assay in rat; format: functional; settings: read-out: ID50 (the source's name)
Rattus norvegicus [2] = assay: Decrease in number of T cells in peripheral blood after administration for 4 days in rat; format: functional; settings: T-cell, 96 h, read-out: ID50 (the source's name)

SMILES | ED50 (Rattus norvegicus [1]) [mg/kg] | ED50 (Rattus norvegicus [2]) [mg/kg]
CCCCCCCOc1ccc(CCC(C)(N)CO)cc1 (stereo unspecified) | 0.031 | 0.061
CCCCCCCOc1ccc(CCC(N)(CO)CO)cc1 | 0.049 | 0.014
CCCCCCCOc1ccc(CC[C@@](N)(CO)CCC)cc1 | 0.63 | 4.4
CCCCCCCOc1ccc(CC[C@](N)(CO)CCC)cc1 | > 10 | > 10
CCCCCCCCc1ccc(CCC(N)(CO)CO)cc1.Cl [FINGOLIMOD HYDROCHLORIDE] | 0.2 | 0.024
CCCCCCCOc1ccc(CCC(N)(CO)C(C)C)cc1 (stereo unspecified) | 2.7 | 4.5
CCCCCCCOc1ccc(CCC(N)(CO)CCC)cc1 (stereo unspecified) | 3.1 | 7.3
CCCCCCCOc1ccc(CCC(N)(CO)CCCC)cc1 (stereo unspecified) | > 10 | > 10
CCCCCCCCc1ccc(CCC(N)CO)cc1.Cl (stereo unspecified) | > 10 | > 10
CCCCCCCOc1ccc(CCC(N)(CC)CO)cc1 (stereo unspecified) | 0.059 | 0.044
CCCCCCCOc1ccc(CC[C@](C)(N)CO)cc1 | > 1 | > 1
CCCCCCCOc1ccc(CC[C@@](C)(N)CO)cc1 | 0.088 | 0.0092
C/C=C/C[C@@H](C)[C@@H](O)[C@H]1C(=O)N[C@@H](CC)C(=O)N(C)CC(=O)N(C)[C@@H](CC(C)C)C(=O)N[C@@H](C(C)C)C(=O)N(C)[C@@H](CC(C)C)C(=O)N[C@@H](C)C(=O)N[C@H](C)C(=O)N(C)[C@@H](CC(C)C)C(=O)N(C)[C@@H](CC(C)C)C(=O)N(C)[C@@H](C(C)C)C(=O)N1C [CYCLOSPORINE] | 2.8 | > 30
